Assay results reported in patent US10501453B2, “Benzothiazole or benzoxazole compounds as SUMO activators” (Icahn School of Medicine at Mount Sinai, priority 2012, dated 2019).
Converted amounts (≈) assume the structure as drawn. Like-named read-outs stand apart in the source and are kept apart here.

Experiments:
[1] = system: YFP-SUMO1; experiment: YFP-SUMO1 accumulation (cell image) in HEK-293 cells expressing YFP-SUMO1 and pcDNA3.0-SERCA2a; type: cell-based; conditions: increase vs. DMSO; for fold induction at 10 µM: Homo sapiens, HEK293, 24 hours
Source text: (§1) The following antibodies were used for immunoblotting and immunoprecipitation (IP): polyclonal anti-SERCA2a (21th century Biochem Inc.), monoclonal anti-GAPDH (Sigma-Aldrich, catalog no. G8795), monoclonal anti-SUMO 1 (Cell Signaling Technology Inc., catalog no. 4930), anti-mouse horseradish peroxidase (HRP) (Pierce Biotechnology Inc., catalog no. 32430), and anti-rabbit HRP (Pierce Biotechnology Inc., catalog no. 32460). YFP-tagged SUMO1, pcDNA3.0-SERCA2a, and HA-tagged Ubc9 plasmids were used for the transfection. The plasmid DNA was amplified in the Escherichia coli strain DH5a and extracted by using a commercial purification kit (Qiagen, catalog no. 12263). Purified plasmid was resuspended in sterile TE buffer (10 mM Tris-HCl and 1 mM EDTA, pH 7.6). Only the preparation highest purity (A260/A280>1.8) was used for transfection. 1 μg of each plasmid was used for transfection. HEK-293 cells (American Type Culture Collection, catalog no. CRL-1873) were grown at 37° C. and under a 5% CO2 humidified atmosphere in Dulbecco's modified Eagle's medium (DMEM, Cellgro, catalog no. 10-0 13-CM) containing 10% fetal bovine serum (SAFC Bioscience, catalog no. 12107) and 100 i.u of penicillin/ml and 100 μg of streptomycin/ml. HEK-293 cells were seeded at a density of 3-5×10^5 cells per 60 mm culture dish in DMEM. The cells were transiently transfected using Lipofectamine 2000 (Invitrogen, catalog no. 11668) with indicated expression plasmids. After 24 hours, the cells were treated with either small molecules or dimethyl sulfoxide (DMSO, Sigma-Aldrich, catalog no. D2650).
(§2) Each compound was added at 10 μM. DMSO was used as a control. After 24 hours at 37° C., SERCA2a SUMOylation and functional analysis were determined.
Cellular permeability and potential activity of the compounds were examined by tracking of the YFP-SUMO1. HEK-293 cells expressing YFP-SUMOI and pcDNA3.0-SERCA2a were incubated with either 10 μM DMSO or 10 μM small molecules for 24 hours at 37° C. Fluorescent signals were monitored by fluorescence microscopy. HA-tagged Ubc9 expressing cells were served as a positive control.
The ability of the Example compound to SUMOylate SERCA2a was examined using an in vitro system in HEK 293 cells where both SERCA2a and SUMO 1 are expressed. The cellular permeability and potential activity of the Example compounds was examined by tracking of the YFP-SUM01. HEK-293 cells expressing YFP-SUM01 and pcDNA3.0-SERCA2a were treated with either 10 μM DMSO or 10 μM indicated Example 1 for 24 hrs. Fluorescent signals were monitored by fluorescence microscopy. HA-Ubc9 expressing cells were served as a positive control. The SERCA2a SUMOylation profiling was then analyzed by using the same cells (FIG. 1B, WCL, whole cell lysates; S-SERCA2a, SUMOylated SERCA2a).

[2] = system: SERCA2a; experiment: SERCA2a SUMOylation assay in HEK-293 cells (immunoprecipitation/immunoblotting); type: cell-based; conditions: compared with DMSO control; 10 μM
Source text: as §1, §2
Equal amounts of protein from either small molecule treated or DMSO treated cells or immunoprecipitates were resolved by 7.5% SDS-PAGE and transferred to nitrocellulose membranes (Bio-Rad, catalog no. 162-0112). The membranes were blocked for 1 hour at room temperature with 5% non-fat milk (Cell Signaling Technology Inc., catalog no. 9999) in TBST (10 mM Tris-HCl, 150 mM NaCl, and 0.05% tween-20, pH 8.0). The blots were incubated with specific primary antibodies at 4° C. for overnight. The blots were then washed five times for 10 minutes each with TBST and incubated for 1 hour with HRP-conjugated secondary antibodies in TBST with 5% non-fat milk. After five times TBST washes, the protein bands were visualized with enhanced chemiluminescence (Pierce Biotechnology Inc., catalog no. 32132) and exposed to x-ray film (Denville Scientific Inc., catalog no. E3012). GAPDH expression provided an internal control.
Post-transfection (48 hours), the HEK-293 cells were rinsed twice with phosphate-buffered saline (PBS, Cellgro, catalog no. 21-040-CM) and lysed in 1% Nonidet P-40 lysis buffer (Boston Bioproducts, catalog no. BP-119) with 10 mM N-ethylmaleimide (NEM, Sigma-Aldrich, catalog no. N3876) and […] inhibitor cocktail (Complete Mini Tablet, Roche Applied Science, catalog no. 11836153001). 2 mg of protein were mixed with the anti-SERCA2a antibodies for overnight at 4° C. in lysis buffer. Pre-washed protein A-Separose beads (Pierce Biotechnology Inc., catalog no. 20333) was added to each sample and incubated 1 hour at 4° C. with gentle rocking. Immunocomplexes were washed with lysis buffer three times and precipitated by centrifugation at 12000×g for 10 seconds. The immunocomplexes were resuspended in SDS sample buffer and subjected to immunoblotting. Controls for the immunoprecipitations were performed using an anti-rabbit IgG equal to that of the primary precipitating antibody. Ten percent of whole cell lysates used in the immunoprecipitation was loaded for subsequent immunoblotting.
The ability of the Example compound to SUMOylate SERCA2a was examined using an in vitro system in HEK 293 cells where both SERCA2a and SUMO 1 are expressed. […]

[3] = system: adult rat ventricular myocytes (ARVMs); experiment: Cell shortening/re-lengthening and calcium transient of ARVMs (IonOptix); type: cell-based; conditions: compared to DMSO control; 10 μM
Protocol: Calcium-tolerant adult rat ventricular myocytes (ARVMs) were obtained from hearts of male Sprague-Dawley rats (250 to 300 g). The heart was excised and perfused with a standard enzymatic technique. ARVMs were plated on multi-chambered plates or culture dishes, pre-coated with laminin 2 μg/cm^2, at a density of 10^5 cells/cm^2 in DMEM without L-glutamine supplemented with 10 mmol/l HEPES, 3.7 mg/ml NaHCO3, 1 mg/ml glucose, 0.11 mg/ml sodium pyruvate, 2 mg/ml bovine serum albumin, 2 mmol/1 L-camitine, 5 mmol/1 creatine, 5 mmol/1 taurine, 1% penicillin-streptomycin, and 1% gentamycin. Following isolation, cells were allowed to settle for 1 hour. Cultures were incubated at 37° C., in an atmosphere of 5% CO2-95% air. Fresh medium was added gently as medium was being drawn off until the cultures had been thoroughly washed. Only quiescent, rod-shape cardiac myocytes were selected for IonOptix experiments.
as §2
Mechanical properties of ARVMs were assessed using an IonOptix MyoCam® system (IonOptix, Milton, Mass.). In brief, cells were placed in a Warner chamber mounted on the stage of an inverted microscope (Olympus, IX-70) and superfused (1 ml/min at 30° C.) with a buffer containing 131 mM NaCl, 4 mM KCl, 1 mM CaCh, 1 mM MgCh, 10 mM glucose, and 10 mM HEPES, pH 7.4. ARVMs were field stimulated with suprathreshold voltage and at a frequency of 0.5 Hz. […] SoftEdge software (IonOptix) was used to capture changes in cell length during shortening and re-lengthening.
ARVMs were placed in a chamber on an Olympus IX-70 inverted microscope and imaged through a Fluor 40× oil objective. ARVMs were exposed to light emitted by a 75 W lamp and passed through either a 360 or a 380 nm filter (bandwidths were ±15 nm), while being stimulated to contract at 0.5 Hz. Fluorescence emissions were detected between 480 and 520 nm by a photomultiplier tube after first illuminating cells at 360 nm for 0.5 s then at 380 nm for the duration of the recording protocol (333 Hz sampling rate). The 360 nm excitation scan was repeated at the end of the protocol and qualitative changes in intracellular Ca^2+ concentration ((Ca^2+]i) were inferred from the ratio of the fluorescence intensity at two wavelengths.
The effects of the Example compound was examined on isolated rat cardiomyocytes shortening and relaxation parameters. […] Effects of Example 1 on mechanical properties of the ARVMs were assessed using a video-based edge detection system (IonOptix). The time constant of the increase of force during the stretch decreased (tau), percentage of peak shortening (PS), maximal rate of relaxation and contraction were analyzed at 24 hrs postincubation of the compounds in culture media (N=10 ARVMs). The mechanical data were analyzed with student's t-test (FIG. 2A, P<0.05 compared to the DMSO treated cells). SERCA2a SUMOylation profiling was analyzed in a same set of ARVMs (FIG. 2B, WCL, whole cell lysates; S-SERCA2a, SUMOylated SERCA2a).

[4] = Solubility (Table 2); conditions: DMSO, organic solvent or mixture
[5] = system: HEK-293 cells; experiment: Toxicity (Table 2; cytotoxicity in the compound screen)
[6] = system: HEK-293 cells

Row | solubility [4] [mM] | Compound | fold induction at 10 µM [1] | SERCA2a SUMOylation [2] | Cardiac Contraction: Peak shortening [3] | Toxicity [5] | YFP accumulation ([1]; 10 μM, 24 hours) | Toxicity [6] [%]
1 | 10 (≈ 3300 µg/mL) | Fc1ccc(-c2nnc(Nc3nc4c(F)cccc4s3)o2)cc1 [Example 2, N-(4-fluorobenzo[d]thiazol-2-yl)-5-(4-fluorophenyl)-1,3,4-oxadiazol-2-amine] | 2.93 | Increased 1.34x compared with DMSO control | Peak shortening 2.2x compared to DMSO control | Non-toxic | – | –
2 | 10 (≈ 3420 µg/mL) | COc1cccc(-c2nnc(Nc3nc4c(F)cccc4s3)o2)c1 [Example 3, N-(4-fluorobenzo[d]thiazol-2-yl)-5-(3-methoxyphenyl)-1,3,4-oxadiazol-2-amine] | 2.49 | Increased 1.43x compared with DMSO control | Peak shortening 2.5x compared to DMSO control | Non-toxic | – | –
3 | 10 (≈ 3420 µg/mL) | COc1ccc(-c2nnc(Nc3nc4c(F)cccc4s3)o2)cc1 [Example 4, N-(4-fluorobenzo[d]thiazol-2-yl)-5-(4-methoxyphenyl)-1,3,4-oxadiazol-2-amine] | 2.34 | Increased 1.4x compared with DMSO control | Peak shortening 4.3x compared to DMSO control | Non-toxic | – | –
4 | – | N-(6-fluorobenzo[d]thiazol-2-yl)-5-(4-methoxyphenyl)-1,3,4-oxadiazol-2-amine [Example 14] | – | Not statistically significant | – | – | Active | > 50
